Assay results from patent publication US9273067B2, “Pyrazolopyrimidine macrocycles as inhibitors of human immunodeficiency virus replication” (BRISTOL-MYERS SQUIBB COMPANY, priority 2014, dated 2016).
“And” between values parts separate entries of the source, which are not always exact repeats. Equal values may be shown once. Read-outs that look alike come from different tables or passages of the source.

Assays:
[1] = not given; remark: listed apart in the source
[2] = tested on: NL-RLuc virus (recombinant HIV NL4-3 with Renilla Luciferase) in MT-2 cells; assay: Inhibition of HIV replication (NL-RLuc virus in MT-2 cells, luciferase readout); format: cell-based, human immunodeficiency virus (HIV); settings: MT2, 120 h, NL-RLuc virus infecting MT-2 cells, 5 days of incubation, 10% FBS, luciferase quantitation; at least 2 experiments
In short: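 NL4-3 carrying Renilla luciferase in place of part of nef, produced in 293T cells, was used to infect MT-2 cells in RPMI 1640/10% FBS with serial compound dilutions. After 5 days, virus growth was read by luciferase. EC50 came from the median effect equation over at least 2 experiments.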

SMILES: CCOC(=O)[C@@H](OC(C)(C)C)c1c(C)nc2cc3nn2c1N1CCC(C)(CC1)OCC=CCCc1cccc(c1)COC3
- ring closure, isolated yield (from C=CCCc1cccc(COCc2cc3nc(C)c([C@H](OC(C)(C)C)C(=O)OCC)c(N4CCC(C)(OCC=C)CC4)n3n2)c1, rcm bond, 20-membered ring, Grubbs II, DCM, 1.62 mM, 2.0 h, 2 steps): 41.8%

SMILES: CCOC(=O)[C@@H](OC(C)(C)C)c1c(C)nc2cc3nn2c1N1CCC(C)(CC1)OCC=CCOC1(CCCCC1)c1cn(nn1)C3
- ring closure, yield after HPLC ([1]; from C=CCOC1(C)CCN(c2c([C@H](OC(C)(C)C)C(=O)OCC)c(C)nc3cc(Cn4cc(C5(OCC=C)CCCCC5)nn4)nn23)CC1, rcm bond, 19-membered ring, Hoveyda-Grubbs II (5 mol%), then NaOH, 1,2-dichloroethane, 4.3 mM, 70.0 °C, 2.0 h, 2 steps): 30.6% and 24.1%

SMILES: CCOC(=O)[C@@H](OC(C)(C)C)c1c(C)nc2cc3nn2c1N1CCC(C)(CC1)OCC=CCOc1cccc(c1)-c1cn(nn1)C3
- ring closure, yield after HPLC ([1]; from C=CCOc1cccc(-c2cn(Cc3cc4nc(C)c([C@H](OC(C)(C)C)C(=O)OCC)c(N5CCC(C)(OCC=C)CC5)n4n3)nn2)c1, rcm bond, 21-membered ring, Hoveyda-Grubbs II (5 mol%), then H2, Pd/C, then NaOH, 1,2-dichloroethane, 1.8 mM, 70.0 °C, 2.0 h, 3 steps): 37.2%

SMILES: CCOC(=O)[C@@H](OC(C)(C)C)c1c(C)nc2cc3nn2c1N1CCC(C)(CC1)OCC=CCOc1ccccc1CC(=O)NC3
- ring closure, yield after HPLC ([1]; from C=CCOc1ccccc1CC(=O)NCc1cc2nc(C)c([C@H](OC(C)(C)C)C(=O)OCC)c(N3CCC(C)(OCC=C)CC3)n2n1, rcm bond, 20-membered ring, Hoveyda-Grubbs II (5 mol%), then NaOH, 1,2-dichloroethane, 8.6 mM, 70.0 °C, 4.0 h, 2 steps): 11.6% and 31.6%

SMILES: CCOC(=O)[C@@H](OC(C)(C)C)c1c(C)nc2cc3nn2c1N1CCC(C)(CC1)OCC=CC[C@H](C)Oc1cc(F)c(F)cc1COC3
- ring closure, yield after HPLC ([1]; from C=CCOC1(C)CCN(c2c([C@H](OC(C)(C)C)C(=O)OCC)c(C)nc3cc(COCc4cc(F)c(F)cc4O[C@@H](C)CC=C)nn23)CC1, rcm bond, 20-membered ring, Hoveyda-Grubbs II/CuI, DCE, 4.25 mM, 90.0 °C, 3.0 h): 27%

SMILES: CCOC(=O)[C@@H](OC(C)(C)C)c1c(C)nc2cc3nn2c1N1CCC(C)(CC1)OCC=CCc1cc(C)ccc1COC3
- ring closure, isolated yield (from C=CCOC1(C)CCN(c2c([C@H](OC(C)(C)C)C(=O)OCC)c(C)nc3cc(COCc4ccc(C)cc4CC=C)nn23)CC1, rcm bond, 18-membered ring, Grubbs II (1 eq), then NaBH4/MeOH, DCM, 1.62 mM, 40.0 °C, 2.0 h, 2 steps): 62.6%

SMILES: CCOC(=O)[C@@H](OC(C)(C)C)c1c(C)nc2cc3nn2c1N1CCC(C)(CC1)OCC=CCc1cc(F)c(F)cc1COC3
- ring closure, isolated yield (from C=CCOC1(C)CCN(c2c([C@H](OC(C)(C)C)C(=O)OCC)c(C)nc3cc(COCc4cc(F)c(F)cc4CC=C)nn23)CC1, rcm bond, 18-membered ring, Grubbs II (0.1 eq), then NaBH4/MeOH, DCM, 1.56 mM, 40.0 °C, 2.0 h, 2 steps): 62.5%

SMILES: CCOC(=O)[C@@H](OC(C)(C)C)c1c(C)nc2cc3nn2c1N1CCC(C)(CC1)OCC=CCc1cc(F)ccc1COC3
- ring closure, isolated yield (from C=CCOC1(C)CCN(c2c([C@H](OC(C)(C)C)C(=O)OCC)c(C)nc3cc(COCc4ccc(F)cc4CC=C)nn23)CC1, rcm bond, 18-membered ring, Grubbs II (1 eq), then NaBH4/MeOH, DCM, 1.6 mM, 40.0 °C, 2.0 h, 2 steps): 44.7%

SMILES: CCOC(=O)[C@@H](OC(C)(C)C)c1c(C)nc2cc3nn2c1N1CCC(C)(CC1)OCC=CCc1ccccc1COC3
- ring closure, isolated yield (from C=CCOC1(C)CCN(c2c([C@H](OC(C)(C)C)C(=O)OCC)c(C)nc3cc(COCc4ccccc4CC=C)nn23)CC1, rcm bond, 18-membered ring, Hoveyda-Grubbs II (20 mol%)/CuI, 1,2-dichloroethane, 1.4 mM, 70.0 °C, 2.0 h): 76%

SMILES: CCOC(=O)[C@@H](OC(C)(C)C)c1c(C)nc2cc3nn2c1N1CCC(C)(CC1)OCC=Cc1cc(C(F)(F)F)ccc1COC3
- ring closure, isolated yield (from C=CCOC1(C)CCN(c2c([C@H](OC(C)(C)C)C(=O)OCC)c(C)nc3cc(COCc4ccc(C(F)(F)F)cc4Br)nn23)CC1, cc_pd bond, 17-membered ring, Pd2(dba)3/PPh3/Et3N, MeCN, 35.1 mM, 120.0 °C, 23.0 h): 62.9%

SMILES: CCOC(=O)[C@@H](OC(C)(C)C)c1c(C)nc2cc3nn2c1N1CCC(C)(CC1)OCC=Cc1ccccc1CC=C3
- ring closure, isolated yield (from C=CCOC1(C)CCN(c2c([C@H](OC(C)(C)C)C(=O)OCC)c(C)nc3cc(C=CCc4ccccc4Br)nn23)CC1, cc_pd bond, 17-membered ring, Pd2(dba)3/PPh3/Et3N, acetonitrile, 35.2 mM, 120.0 °C, 20.0 h): 51.6%

SMILES: CCOC(=O)[C@@H](OC(C)(C)C)c1c(C)nc2cc3nn2c1N1CCC(C)(CC1)OCCCC[C@H](C)Oc1c(F)cc(F)cc1CCC3
- ring closure, yield after HPLC ([1]; from CCOC(=O)[C@@H](OC(C)(C)C)c1c(C)nc2cc(CCCc3cc(F)cc(F)c3O)nn2c1N1CCC(C)(OCCCC[C@@H](C)O)CC1, ether bond, 20-membered ring, PPh3/DEAD, THF, 6.4 mM, 3.0 h, 2 steps): 37.6%

SMILES: CCOC(=O)[C@@H](OC(C)(C)C)c1c(C)nc2cc3nn2c1N1CCC(C)(CC1)OCCCC[C@H](C)Oc1cc(F)c(F)cc1CCC3
- ring closure, yield after HPLC ([1]; from CCOC(=O)[C@@H](OC(C)(C)C)c1c(C)nc2cc(CCCc3cc(F)c(F)cc3O)nn2c1N1CCC(C)(OCCCC[C@@H](C)O)CC1, ether bond, 20-membered ring, PPh3/DEAD, THF, 10.5 mM, 3.0 h, 2 steps): 19.2%

SMILES: CCOC(=O)[C@@H](OC(C)(C)C)c1c(C)nc2cc3nn2c1N1CCC(C)(CC1)OCCCC[C@H](C)Oc1ccc(F)c(F)c1CCC3
- ring closure, yield after HPLC ([1]; from CCOC(=O)[C@@H](OC(C)(C)C)c1c(C)nc2cc(CCCc3c(O)ccc(F)c3F)nn2c1N1CCC(C)(OCCCC[C@@H](C)O)CC1, ether bond, 20-membered ring, PPh3/DEAD, THF, 5.2 mM, 3.0 h, 2 steps): 23.6%

SMILES: COC(=O)[C@@H](OC(C)(C)C)c1c(C)nc2cc3nn2c1N1CCC(C)(CC1)OCC=Cc1ccccc1COC3
- ring closure, isolated yield (from C=CCOC1(C)CCN(c2c([C@H](OC(C)(C)C)C(=O)OC)c(C)nc3cc(COCc4ccccc4Br)nn23)CC1, cc_pd bond, 17-membered ring, Pd2(dba)3/PPh3/Et3N, acetonitrile, 40.0 mM, 120.0 °C, 18.0 h): 78%

SMILES: Cc1nc2cc3nn2c(c1[C@H](OC(C)(C)C)C(=O)O)N1CCC(C)(CC1)OCC=CC[C@H](C)Oc1ccc(F)cc1COC3 [Example 27, (2S)-2-(tert-Butoxy)-2-[(20S)-15-fluoro-4,20,26-trimethyl-11,19,25-trioxa-1,5,7,8-tetraazapentacyclo[24.2.2.1^6,^9.0^2,^7.0^13,^18]hentriaconta-2,4,6(31),8,13,15,17,22-octaen-3-yl]acetic acid]
- EC50 [2]: 37 nM
- ring closure, yield after HPLC ([1]; from C=CCOC1(C)CCN(c2c([C@H](OC(C)(C)C)C(=O)O)c(C)nc3cc(COCc4cc(F)ccc4O[C@@H](C)CC=C)nn23)CC1, rcm bond, 20-membered ring, Hoveyda-Grubbs II/CuI, DCE, 0.41 mM, 90.0 °C, 3.0 h): 50.2%

SMILES: Cc1ccc2c(c1)COCc1cc3nc(C)c([C@H](OC(C)(C)C)C(=O)O)c(n3n1)N1CCC(C)(CC1)OCC=CC[C@H](C)O2 [Example 29, (2S)-2-(tert-Butoxy)-2-[(20S)-4,15,20,26-tetramethyl-11,19,25-trioxa-1,5,7,8-tetraazapentacyclo[24.2.2.1^6,^9.0^2,^7.0^13,^18]hentriaconta-2,4,6(31),8,13,15,17,22-octaen-3-yl]acetic acid]
- EC50 [2]: 6 nM
- ring closure, yield after HPLC ([1]; from C=CCOC1(C)CCN(c2c([C@H](OC(C)(C)C)C(=O)O)c(C)nc3cc(COCc4cc(C)ccc4O[C@@H](C)CC=C)nn23)CC1, rcm bond, 20-membered ring, Hoveyda-Grubbs II/CuI, DCE, 13.0 mM, 90.0 °C, 3.0 h): 5.64%

SMILES: Cc1nc2cc3nn2c(c1[C@H](OC(C)(C)C)C(=O)O)N1CCC(C)(CC1)OCC=CC[C@H](C)Oc1cc(F)cc(F)c1COC3 [Example 31, (2S)-2-(tert-Butoxy)-2-[(20S)-14,16-difluoro-4,20,26-trimethyl-11,19,25-trioxa-1,5,7,8-tetraazapentacyclo[24.2.2.1^6,^9.0^2,^7.0^13,^18]hentriaconta-2,4,6(31),8,13,15,17,22-octaen-3-yl]acetic acid]
- EC50 [2]: 12 nM
- ring closure, yield after HPLC ([1]; from C=CCOC1(C)CCN(c2c([C@H](OC(C)(C)C)C(=O)O)c(C)nc3cc(COCc4c(F)cc(F)cc4O[C@@H](C)CC=C)nn23)CC1, rcm bond, 20-membered ring, Hoveyda-Grubbs II/CuI, DCE, 11.5 mM, 90.0 °C, 1.5 h): 5.67%

SMILES: Cc1nc2cc3nn2c(c1[C@H](OC(C)(C)C)C(=O)O)N1CCC(C)(CC1)OCC=CC[C@H](C)Oc1cc(Cl)ccc1COC3 [Example 34, (2S)-2-(tert-Butoxy)-2-[(20S)-16-chloro-4,20,26-trimethyl-11,19,25-trioxa-1,5,7,8-tetraazapentacyclo[24.2.2.1^6,^9.0^2,^7.0^13,^18]hentriaconta-2,4,6(31),8,13,15,17,22-octaen-3-yl]acetic acid]
- EC50 [2]: 5 nM
- ring closure, yield after HPLC ([1]; from C=CCOC1(C)CCN(c2c([C@H](OC(C)(C)C)C(=O)O)c(C)nc3cc(COCc4ccc(Cl)cc4O[C@@H](C)CC=C)nn23)CC1, rcm bond, 20-membered ring, Hoveyda-Grubbs II/CuI, DCE, 31.5 mM, 90.0 °C, 1.5 h): 7.32%
